Experimental data: PubChem BioAssay (NCI)
≈ marks a conversion by molar mass, not a printed value.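 Values below derive from 48-hour exposures of cells grown in 96-well plates, with endpoints linearly interpolated between the two concentrations bracketing the appropriate inhibition level. GI50 = concentration required for 50% inhibition of growth. TGI denotes the concentration required for complete inhibition of growth.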

What was measured:
Test in all cases: DTP human tumour cell line panel, 48 h
OVCAR-3 ovarian = tested on: OVCAR-3 ovarian
TK-10 renal = tested on: TK-10 renal
SW-620 colon = tested on: SW-620 colon
U251 CNS = tested on: U251 CNS
SK-MEL-5 melanoma = tested on: SK-MEL-5 melanoma
UACC-257 melanoma = tested on: UACC-257 melanoma
UACC-62 melanoma = tested on: UACC-62 melanoma
OVCAR-8 ovarian = tested on: OVCAR-8 ovarian
CAKI-1 renal = tested on: CAKI-1 renal
SF-268 CNS = tested on: SF-268 CNS
HOP-62 NSCLC = tested on: HOP-62 NSCLC
HCT-116 colon = tested on: HCT-116 colon
NCI-H460 lung = tested on: NCI-H460 lung
M14 melanoma = tested on: M14 melanoma
BT-549 breast = tested on: BT-549 breast
786-0 renal = tested on: 786-0 renal
SF-295 CNS = tested on: SF-295 CNS
SK-OV-3 ovarian = tested on: SK-OV-3 ovarian
PC-3 prostate = tested on: PC-3 prostate
SK-MEL-2 melanoma = tested on: SK-MEL-2 melanoma
CCRF-CEM leukemia = tested on: CCRF-CEM leukemia
KM12 colon = tested on: KM12 colon
MDA-MB-435 = tested on: MDA-MB-435
RPMI-8226 leukemia = tested on: RPMI-8226 leukemia
MCF7 breast = tested on: MCF7 breast
NCI-H226 lung = tested on: NCI-H226 lung
SN12C renal = tested on: SN12C renal
UO-31 renal = tested on: UO-31 renal
MDA-MB-231 breast = tested on: MDA-MB-231 breast
OVCAR-5 ovarian = tested on: OVCAR-5 ovarian
MALME-3M melanoma = tested on: MALME-3M melanoma
SF-539 CNS = tested on: SF-539 CNS
NCI-H23 lung = tested on: NCI-H23 lung
ACHN renal = tested on: ACHN renal
SK-MEL-28 melanoma = tested on: SK-MEL-28 melanoma
MOLT-4 leukemia = tested on: MOLT-4 leukemia
SR leukemia = tested on: SR leukemia
A498 renal = tested on: A498 renal
COLO 205 colon = tested on: COLO 205 colon
HOP-92 NSCLC = tested on: HOP-92 NSCLC

c1ccc(CSCCNCCN(CCNCCSCc2ccccc2)CCNCCSCc2ccccc2)cc1
GI50 (OVCAR-3 ovarian): 4230 nM
TGI (OVCAR-3 ovarian): 18300 nM
GI50 (TK-10 renal): 1590 nM
TGI (TK-10 renal): 2940 nM
GI50 (SW-620 colon): 1780 nM
TGI (SW-620 colon): 3210 nM
GI50 (U251 CNS): 1520 nM
TGI (U251 CNS): 2850 nM
GI50 (SK-MEL-5 melanoma): 1720 nM
TGI (SK-MEL-5 melanoma): 3120 nM
GI50 (UACC-257 melanoma): 1770 nM
TGI (UACC-257 melanoma): 3310 nM
GI50 (UACC-62 melanoma): 1770 nM
TGI (UACC-62 melanoma): 3160 nM
GI50 (OVCAR-8 ovarian): 1570 nM
TGI (OVCAR-8 ovarian): 3020 nM
GI50 (CAKI-1 renal): 3350 nM
TGI (CAKI-1 renal): 14300 nM
GI50 (SF-268 CNS): 1530 nM
TGI (SF-268 CNS): 2960 nM
GI50 (HOP-62 NSCLC): 1490 nM
TGI (HOP-62 NSCLC): 2830 nM
GI50 (HCT-116 colon): 183 nM
TGI (HCT-116 colon): 340 nM
GI50 (NCI-H460 lung): 1370 nM
TGI (NCI-H460 lung): 2710 nM
GI50 (M14 melanoma): 1310 nM
TGI (M14 melanoma): 2650 nM
GI50 (BT-549 breast): 1800 nM
TGI (BT-549 breast): 3220 nM
GI50 (786-0 renal): 1530 nM
TGI (786-0 renal): 2940 nM
GI50 (SF-295 CNS): 4170 nM
TGI (SF-295 CNS): 20500 nM
GI50 (SK-OV-3 ovarian): 1940 nM
TGI (SK-OV-3 ovarian): 3430 nM
GI50 (PC-3 prostate): 1660 nM
TGI (PC-3 prostate): 3210 nM
GI50 (SK-MEL-2 melanoma): 1600 nM
TGI (SK-MEL-2 melanoma): 3110 nM
GI50 (CCRF-CEM leukemia): 1540 nM
TGI (CCRF-CEM leukemia): 3060 nM
GI50 (KM12 colon): 1100 nM
TGI (KM12 colon): 2410 nM
GI50 (MDA-MB-435): 5370 nM
TGI (MDA-MB-435): 18900 nM
GI50 (RPMI-8226 leukemia): 337 nM
TGI (RPMI-8226 leukemia): 1030 nM
GI50 (MCF7 breast): 363 nM
TGI (MCF7 breast): 803 nM
GI50 (NCI-H226 lung): 1780 nM
TGI (NCI-H226 lung): 3280 nM
GI50 (SN12C renal): 1440 nM
TGI (SN12C renal): 2770 nM
GI50 (UO-31 renal): 1780 nM
TGI (UO-31 renal): 3230 nM
GI50 (MDA-MB-231 breast): 1560 nM
TGI (MDA-MB-231 breast): 2940 nM
GI50 (OVCAR-5 ovarian): 1760 nM
TGI (OVCAR-5 ovarian): 3190 nM
GI50 (MALME-3M melanoma): 1840 nM
TGI (MALME-3M melanoma): 3410 nM
GI50 (SF-539 CNS): 2140 nM
TGI (SF-539 CNS): 3580 nM

CC(=O)O[C@H]1CC[C@]2(C)[C@H]3CC=C4[C@@H]5CC(C)(C)CC[C@]5(C(=O)NCCNCCNCCN)CC[C@@]4(C)[C@]3(C)CC[C@H]2C1(C)C
GI50 (OVCAR-3 ovarian): 1760 nM
TGI (OVCAR-3 ovarian): 3240 nM
GI50 (NCI-H23 lung): 1800 nM
TGI (NCI-H23 lung): 3570 nM
GI50 (UACC-62 melanoma): 1740 nM
TGI (UACC-62 melanoma): 3180 nM
GI50 (MDA-MB-435): 1670 nM
TGI (MDA-MB-435): 3100 nM
GI50 (ACHN renal): 1750 nM
TGI (ACHN renal): 3140 nM
GI50 (NCI-H226 lung): 2180 nM
TGI (NCI-H226 lung): 4990 nM
GI50 (SK-MEL-28 melanoma): 1740 nM
TGI (SK-MEL-28 melanoma): 3210 nM
GI50 (SN12C renal): 1780 nM
TGI (SN12C renal): 3370 nM
GI50 (MDA-MB-231 breast): 1530 nM
TGI (MDA-MB-231 breast): 3040 nM
GI50 (OVCAR-5 ovarian): 1670 nM
TGI (OVCAR-5 ovarian): 3130 nM
GI50 (SF-539 CNS): 1690 nM
TGI (SF-539 CNS): 3170 nM

N#Cc1cc2c(N)ncnc2nc1N1CCCC1
GI50 (MOLT-4 leukemia): 85.2 µg/mL (≈ 355 µM)
GI50 (M14 melanoma): 48.4 µg/mL
GI50 (BT-549 breast): 49.3 µg/mL
GI50 (SK-OV-3 ovarian): 54.4 µg/mL
GI50 (SR leukemia): 66.4 µg/mL (≈ 276 µM)
GI50 (UO-31 renal): 45.7 µg/mL
GI50 (A498 renal): 36.9 µg/mL (≈ 154 µM)
GI50 (COLO 205 colon): 83.6 µg/mL (≈ 348 µM)
GI50 (HOP-92 NSCLC): 57.2 µg/mL (≈ 238 µM)
